Where “and” joins values, the source holds several entries; their conditions need not be identical. Equal values may be shown once.
COC(F)(F)C(F)(F)F [methyl pentafluoroethyl ether]
Settings | mass density [kg/m3]
240 K, 142.7 kPa, Liquid | 1425.44
240 K, 525.8 kPa, Liquid | 1426.3
240 K, 1016.6 kPa, Liquid | 1427.42
240 K, 1498.9 kPa, Liquid | 1428.49
240 K, 2020 kPa, Liquid | 1429.64
240 K, 2495.8 kPa, Liquid | 1430.67
240 K, 3020.1 kPa, Liquid | 1431.83
240 K, 3526.2 kPa, Liquid | 1432.91
240 K, 4022.9 kPa, Liquid | 1433.98
240 K, 4516.7 kPa, Liquid | 1435.03
240 K, 5006.8 kPa, Liquid | 1436.06
240 K, 5507.4 kPa, Liquid | 1437.1
240 K, 6031.3 kPa, Liquid | 1438.18
240 K, 6522.4 kPa, Liquid | 1439.2
240 K, 6991.3 kPa, Liquid | 1440.14
250 K, 508.4 kPa, Liquid | 1401.06
250 K, 999.4 kPa, Liquid | 1402.28
250 K, 1512.6 kPa, Liquid | 1403.57
250 K, 1981.4 kPa, Liquid | 1404.73
250 K, 2484.2 kPa, Liquid | 1405.96
250 K, 3006.1 kPa, Liquid | 1407.22
250 K, 3493.4 kPa, Liquid | 1408.39
250 K, 4031.6 kPa, Liquid | 1409.66
250 K, 4527.8 kPa, Liquid | 1410.82
250 K, 5017.1 kPa, Liquid | 1411.96
250 K, 5520.4 kPa, Liquid | 1413.12
250 K, 5982.1 kPa, Liquid | 1414.17
250 K, 6505.2 kPa, Liquid | 1415.37
250 K, 6941.8 kPa, Liquid | 1416.34
260 K, 86.5 kPa, Liquid | 1374.31
260 K, 500.8 kPa, Liquid | 1375.48
260 K, 1002.7 kPa, Liquid | 1376.9
260 K, 1516.5 kPa, Liquid | 1378.35
260 K, 2001 kPa, Liquid | 1379.71
260 K, 2509.7 kPa, Liquid | 1381.11
260 K, 3006.5 kPa, Liquid | 1382.45
260 K, 3509.7 kPa, Liquid | 1383.8
260 K, 4009.1 kPa, Liquid | 1385.14
260 K, 4516.6 kPa, Liquid | 1386.48
260 K, 5008.9 kPa, Liquid | 1387.75
260 K, 5494.8 kPa, Liquid | 1389
260 K, 6029.6 kPa, Liquid | 1390.36
260 K, 6497.8 kPa, Liquid | 1391.53
260 K, 6976.1 kPa, Liquid | 1392.71
270 K, 526.2 kPa, Liquid | 1348.82
270 K, 1033.1 kPa, Liquid | 1350.45
270 K, 1545.3 kPa, Liquid | 1352.07
270 K, 2026.1 kPa, Liquid | 1353.57
270 K, 2522.2 kPa, Liquid | 1355.11
270 K, 3044.2 kPa, Liquid | 1356.7
270 K, 3549.7 kPa, Liquid | 1358.22
270 K, 3956.7 kPa, Liquid | 1359.43
270 K, 4491.8 kPa, Liquid | 1360.99
270 K, 5023.1 kPa, Liquid | 1362.54
270 K, 5514.7 kPa, Liquid | 1363.95
270 K, 6030.4 kPa, Liquid | 1365.42
270 K, 6512.4 kPa, Liquid | 1366.76
270 K, 6977.7 kPa, Liquid | 1367.99
280 K, 445.3 kPa, Liquid | 1320.87
280 K, 957.2 kPa, Liquid | 1322.76
280 K, 1474.3 kPa, Liquid | 1324.63
280 K, 1861.1 kPa, Liquid | 1326.03
280 K, 2459.7 kPa, Liquid | 1328.12
280 K, 2951.9 kPa, Liquid | 1329.83
280 K, 3497.7 kPa, Liquid | 1331.69
280 K, 3963.9 kPa, Liquid | 1333.26
280 K, 4513.2 kPa, Liquid | 1335.09
280 K, 4981.9 kPa, Liquid | 1336.62
280 K, 5492.2 kPa, Liquid | 1338.26
280 K, 5847.1 kPa, Liquid | 1339.41
280 K, 6466.8 kPa, Liquid | 1341.37
280 K, 7194.3 kPa, Liquid | 1343.64
290 K, 83.3 kPa, Liquid | 1290.78
290 K, 504.8 kPa, Liquid | 1292.57
290 K, 981.6 kPa, Liquid | 1294.58
290 K, 1520.9 kPa, Liquid | 1296.8
290 K, 2011.5 kPa, Liquid | 1298.79
290 K, 2520.4 kPa, Liquid | 1300.82
290 K, 2991.9 kPa, Liquid | 1302.67
290 K, 3491.2 kPa, Liquid | 1304.61
290 K, 4006.3 kPa, Liquid | 1306.56
290 K, 4525.3 kPa, Liquid | 1308.51
290 K, 4985.1 kPa, Liquid | 1310.22
290 K, 5527.4 kPa, Liquid | 1312.2
290 K, 6024.9 kPa, Liquid | 1313.97
290 K, 6484.8 kPa, Liquid | 1315.61
290 K, 6967.8 kPa, Liquid | 1317.32
300 K, 45.7 kPa, Gas | 2.84
300 K, 56.7 kPa, Gas | 3.73
300 K, 82 kPa, Gas | 5.31
300 K, 93.3 kPa, Gas | 6.05
300 K, 98.2 kPa, Gas | 6.15
300 K, 116.1 kPa, Gas | 7.55
300 K, 131.7 kPa, Gas | 8.6
300 K, 165.9 kPa, Gas | 10.97
300 K, 188.8 kPa, Gas | 12.58
300 K, 218.2 kPa, Gas | 15.51
300 K, 225.7 kPa, Liquid | 1260.66
300 K, 238.5 kPa, Liquid | 1260.72
300 K, 491.2 kPa, Liquid | 1262.72
300 K, 953.1 kPa, Liquid | 1264.98
300 K, 1060.7 kPa, Liquid | 1264.75
300 K, 1531 kPa, Liquid | 1267.74
300 K, 2019 kPa, Liquid | 1270.02
300 K, 2031.9 kPa, Liquid | 1269.32
300 K, 2496.4 kPa, Liquid | 1272.22
300 K, 2993.2 kPa, Liquid | 1274.45
300 K, 3055.9 kPa, Liquid | 1273.93
300 K, 3514 kPa, Liquid | 1276.75
300 K, 4031 kPa, Liquid | 1279
300 K, 4031.8 kPa, Liquid | 1278.16
300 K, 4522.9 kPa, Liquid | 1281.1
300 K, 4978 kPa, Liquid | 1283
300 K, 5197 kPa, Liquid | 1282.99
300 K, 5491.3 kPa, Liquid | 1285.12
300 K, 5997.8 kPa, Liquid | 1287.18
300 K, 6173.2 kPa, Liquid | 1286.91
300 K, 6524.7 kPa, Liquid | 1289.29
300 K, 7023.9 kPa, Liquid | 1291.24
300 K, 7126.4 kPa, Liquid | 1290.5
310 K, 21.5 kPa, Gas | 1.25
310 K, 31.7 kPa, Gas | 1.86
310 K, 97.3 kPa, Gas | 5.82
310 K, 144.4 kPa, Gas | 8.89
310 K, 195.7 kPa, Gas | 12.34
310 K, 245.2 kPa, Gas | 15.73
310 K, 276.7 kPa, Gas | 17.86
310 K, 300.3 kPa, Liquid | 1229.27
310 K, 312.6 kPa, Liquid | 1229.37
310 K, 517 kPa, Liquid | 1231.54
310 K, 1007.8 kPa, Liquid | 1234.36
310 K, 1029.3 kPa, Liquid | 1233.39
310 K, 1513.8 kPa, Liquid | 1237.16
310 K, 2033.1 kPa, Liquid | 1239.99
310 K, 2065.7 kPa, Liquid | 1238.99
310 K, 2524.9 kPa, Liquid | 1242.6
310 K, 3064.4 kPa, Liquid | 1245.4
310 K, 3131.6 kPa, Liquid | 1244.48
310 K, 3532.8 kPa, Liquid | 1247.78
310 K, 3972.8 kPa, Liquid | 1249.95
310 K, 4126.7 kPa, Liquid | 1249.38
310 K, 4507.3 kPa, Liquid | 1252.57
310 K, 5034.7 kPa, Liquid | 1255.08
310 K, 5145.5 kPa, Liquid | 1254.18
310 K, 5514.9 kPa, Liquid | 1257.34
310 K, 6031.8 kPa, Liquid | 1259.71
310 K, 6158.3 kPa, Liquid | 1258.81
310 K, 6533.8 kPa, Liquid | 1261.96
310 K, 7010.8 kPa, Liquid | 1264.09
310 K, 7224 kPa, Liquid | 1263.45
320 K, 61.7 kPa, Gas | 3.58
320 K, 90.4 kPa, Gas | 5.23
320 K, 101.6 kPa, Gas | 5.98
320 K, 132 kPa, Gas | 7.77
320 K, 155.5 kPa, Gas | 9.32
320 K, 191.5 kPa, Gas | 11.5
320 K, 213.2 kPa, Gas | 12.95
320 K, 276.1 kPa, Gas | 17.25
320 K, 336.5 kPa, Gas | 21.52
320 K, 383 kPa, Gas | 24.92
320 K, 384.9 kPa, Gas | 25.11
320 K, 389.1 kPa, Gas | 25.46
320 K, 413.8 kPa, Liquid | 1196.33
320 K, 506.3 kPa, Liquid | 1198.36
320 K, 1023.1 kPa, Liquid | 1201.87
320 K, 1053 kPa, Liquid | 1200.63
320 K, 1521.8 kPa, Liquid | 1205.15
320 K, 2002.9 kPa, Liquid | 1208.23
320 K, 2051.9 kPa, Liquid | 1207.02
320 K, 2517.3 kPa, Liquid | 1211.43
320 K, 3022.6 kPa, Liquid | 1214.49
320 K, 3053.1 kPa, Liquid | 1213.09
320 K, 3517.5 kPa, Liquid | 1217.45
320 K, 4012.9 kPa, Liquid | 1220.32
320 K, 4120.2 kPa, Liquid | 1219.2
320 K, 4543.1 kPa, Liquid | 1223.3
320 K, 5018.6 kPa, Liquid | 1225.9
320 K, 5085.4 kPa, Liquid | 1224.49
320 K, 5551.9 kPa, Liquid | 1228.77
320 K, 5992.8 kPa, Liquid | 1231.09
320 K, 6206.6 kPa, Liquid | 1230.35
320 K, 6495.8 kPa, Liquid | 1233.69
320 K, 6965.6 kPa, Liquid | 1236.06
320 K, 7182.7 kPa, Liquid | 1235.21
330 K, 70.8 kPa, Gas | 3.97
330 K, 98.4 kPa, Gas | 5.48
330 K, 103.9 kPa, Gas | 5.88
330 K, 151.6 kPa, Gas | 8.67
330 K, 169.4 kPa, Gas | 9.72
330 K, 219.7 kPa, Gas | 12.83
330 K, 235.2 kPa, Gas | 13.71
330 K, 295.3 kPa, Gas | 17.66
330 K, 307.4 kPa, Gas | 18.42
330 K, 315.2 kPa, Gas | 18.98
330 K, 375.8 kPa, Gas | 23.12
330 K, 444.8 kPa, Gas | 28.23
330 K, 472.9 kPa, Gas | 30.25
330 K, 547.4 kPa, Liquid | 1161.55
330 K, 1004 kPa, Liquid | 1165.27
330 K, 1009.1 kPa, Liquid | 1167.02
330 K, 1493.2 kPa, Liquid | 1170.86
330 K, 1999 kPa, Liquid | 1172.99

mass density
Settings | 240 K | 250 K | 260 K | 270 K | 280 K | 290 K | 300 K | 310 K | 320 K
Gas | – | – | – | – | – | – | – | 23.61 kg/m3 | 29.81 kg/m3
Liquid | 1425.22 kg/m3 | 1399.85 kg/m3 | 1374.2 kg/m3 | 1347.19 kg/m3 | 1319.62 kg/m3 | 1291.09 kg/m3 | 1260.39 kg/m3 and 1261.37 kg/m3 and 1261.41 kg/m3 | 1230.28 kg/m3 | 1196.29 kg/m3 and 1197.68 kg/m3

— the NIST ThermoML archive (doi:10.1021/je025657+)
